Measured values: patent US6936597B2, “Prodrugs of anticancer agents employing substituted aromatic acids” (priority 2001, dated 2005)

Experiments:
[1] = tested on: P388/O (murine lymphoid neoplasm) cell line; assay: In vitro bioassay, cell growth by Alamar Blue; type: cell-based; details: P388/O cells, three days, 37° C., in duplicate, SD ±10%
Description: A series of in vitro assays were conducted to determine the IC50 for unmodified Ara-C and compound 10 using the P388/O (murine lymphoid neoplasm, Southern Research Institute) cell line. The P388/0 cells were grown in RPMI 1640 medium (Whittaker Bioproducts, Walkersville, Md.)+10% FBS (Hyclone Inc., Logan Utah). Bioassays were performed in their respective media containing antibiotics and fungizone.
Ara-C was dissolved in DMSO and diluted to the appropriate concentration in culture media. The individual PEG-Ara-C compound was dissolved in water and diluted to the appropriate concentrations in culture media.
The assays were performed in duplicate in 96-well microtiter cell culture plates. Two fold serial dilution of the compounds were done in the microtiter plates. Cells were detached by incubating with 0.1% Trypsin/Versene at 37°. Trypsin was inactivated by adding the appropriate media for each cell line containing 10% FBS. To each well of the microtiter plates, 10,000 cells were added. After three days, cell growth was measured by addition of a metabolic indicator dye, Alamar Blue, according to the manufacturer's protocol. The IC50 value for the test compound and reference compound are provided above in the Table.

[2] = tested on: LX-1 (solid human lung Tumor); assay: LX-1 tumor xenograft in athymic nude mice; type: in vivo; details: when control median tumor volume reached 1000 mm^3
Description: All PEG conjugated compounds were dissolved (˜15 mg/mL) in sterile saline (0.9%) for injection prior to in vivo drug treatments and were given as their ara-C equivalents (absolute amount of ara-C given).
Athymic nude mice were implanted subcutaneous with a 4-5 mm^3 tissue fragment of LX-1 (solid human lung Tumor) collected from donor mice. The tumor trocar site was observed twice weekly and measured once palpable. The tumor volume for each mouse was determined by measuring two dimensions with calipers and calculated using the formula: tumor volume=(length×width^2)/2. […] The mice were sorted to evenly distribute tumor size, grouped into 4 to 6 mice/group, and ear punched for permanent identification. Drugs were administered intravenously q3d×4 (Day 1, 4, 7 and 10) via the tail vein at an approximate rate of 0.5 mL per minute.

[3] = Half-life in rat plasma, measured by disappearance of PEG derivatives; type: in vitro ADME; details: 37° C., in duplicate, SD ±10%

Compound | IC50 [1] | % Tumor Growth Inhibition ([2]; 100 mg/kg i.v. q3d×4, LX-1 in nude mice) | t1/2 (h) Rat Plasma [3] | % Tumor Growth Inhibition ([2]; 20 mg/kg (ara-C equivalents) i.v. q3d×4, LX-1 in nude mice)
Nc1ccn([C@@H]2O[C@H](CO)[C@@H](O)[C@@H]2O)c(=O)n1 [Ara-C, cytosine arabinoside, reference compound] | 10 nM | 26.2% | – | –
PEG ara-C 4-aminobenzenamide [Compound 6b] | 1190 nM | – | 75 h | 12.3%
PEG ara-C 4-aminomethylbenzenamide [Compound 6a] | 122 nM | – | 65 h | –
